From patent publication US11534457B2, “Use of dextran sulfate” (priority 2017, dated 2022)
Marks after values point to notes of the source that are not given here.

System: severe traumatic brain injury (sTBI)
Assay: sTBI in rats, HPLC of free amino acids and amino group containing compounds in brain (Example 3)
Assay type: in vivo, Male Wistar rats
[1] = Acute phase 1: 15 mg/kg s.c. 30 min post-sTBI, sacrifice 2 days
[2] = Acute phase 2: 15 mg/kg s.c. 30 min post-sTBI, sacrifice 7 days
[3] = Chronic phase: 15 mg/kg s.c. 3 days post-sTBI, sacrifice 7 days

Substance: low molecular weight dextran sulfate [LMW-DS]
- compounds of the methyl cycle (Met, L-Cystat, SAH) (15 mg/kg s.c.): significant beneficial effects
- sTBI-induced increase in brain glutamate (GLU) (15 mg/kg s.c. 30 min after sTBI): remarkable inhibition
- brain glutamate (excitotoxicity marker) (15 mg/kg s.c. injected 3 days after sTBI): no efficacy
- ALA, cerebral concentration [1]: 0.50 ± 0.12^a μmol/g (w.w.)
- ARG, cerebral concentration [1]: 0.13 ± 0.02^b,d μmol/g (w.w.)
- ASN, cerebral concentration [1]: 0.12 ± 0.02^i μmol/g (w.w.)
- ASP, cerebral concentration [1]: 2.40 ± 0.56^d,i μmol/g (w.w.)
- CITR, cerebral concentration [1]: 0.018 ± 0.004 µmol/g (w.w.)
- GABA, cerebral concentration [1]: 1.43 ± 0.25^a μmol/g (w.w.)
- GLN, cerebral concentration [1]: 4.78 ± 1.09^a μmol/g (w.w.)
- GLU, cerebral concentration [1]: 9.81 ± 1.66^i μmol/g (w.w.)
- GLY, cerebral concentration [1]: 0.83 ± 0.25^a,c μmol/g (w.w.)
- HIS, cerebral concentration [1]: 0.068 ± 0.015^b μmol/g (w.w.)
- ILE, cerebral concentration [1]: 0.038 ± 0.007 µmol/g (w.w.)
- L-Cystat, cerebral concentration [1]: 0.185 ± 0.031^b,c,i μmol/g (w.w.)
- LEU, cerebral concentration [1]: 0.021 ± 0.005^a,c μmol/g (w.w.)
- LYS, cerebral concentration [1]: 0.236 ± 0.057^b,d,h μmol/g (w.w.)
- MET, cerebral concentration [1]: 0.016 ± 0.005^d,j μmol/g (w.w.)
- ORN, cerebral concentration [1]: 0.014 ± 0.007 µmol/g (w.w.)
- PHE, cerebral concentration [1]: 0.031 ± 0.011^b,d μmol/g (w.w.)
- SAH, cerebral concentration [1]: 0.033 ± 0.008^b,c,j μmol/g (w.w.)
- SER, cerebral concentration [1]: 0.88 ± 0.25^a μmol/g (w.w.)
- TAU, cerebral concentration [1]: 4.86 ± 0.85^b μmol/g (w.w.)
- THR, cerebral concentration [1]: 0.92 ± 0.29^a μmol/g (w.w.)
- TRP, cerebral concentration [1]: 0.030 ± 0.007^b,dg,i μmol/g (w.w.)
- TYR, cerebral concentration [1]: 0.15 ± 0.03 µmol/g (w.w.)
- VAL, cerebral concentration [1]: 0.042 ± 0.011 µmol/g (w.w.)
- ALA, cerebral concentration [2]: 0.52 ± 0.24^a,e μmol/g (w.w.)
- ARG, cerebral concentration [2]: 0.16 ± 0.03 µmol/g (w.w.)
- ASN, cerebral concentration [2]: 0.13 ± 0.03^i μmol/g (w.w.)
- ASP, cerebral concentration [2]: 2.94 ± 0.98^f,j μmol/g (w.w.)
- CITR, cerebral concentration [2]: 0.018 ± 0.008 µmol/g (w.w.)
- GABA, cerebral concentration [2]: 1.60 ± 0.24^a μmol/g (w.w.)
- GLN, cerebral concentration [2]: 3.66 ± 0.41 µmol/g (w.w.)
- GLU, cerebral concentration [2]: 9.93 ± 1.56^e,i μmol/g (w.w.)
- GLY, cerebral concentration [2]: 0.71 ± 0.16^f,i μmol/g (w.w.)
- HIS, cerebral concentration [2]: 0.055 ± 0.019 µmol/g (w.w.)
- ILE, cerebral concentration [2]: 0.048 ± 0.017^a μmol/g (w.w.)
- L-Cystat, cerebral concentration [2]: 0.173 ± 0.038^b,f,i μmol/g (w.w.)
- LEU, cerebral concentration [2]: 0.018 ± 0.004 µmol/g (w.w.)
- LYS, cerebral concentration [2]: 0.32 ± 0.04^a,e,i μmol/g (w.w.)
- MET, cerebral concentration [2]: 0.022 ± 0.006^b,e,i μmol/g (w.w.)
- ORN, cerebral concentration [2]: 0.011 ± 0.005 µmol/g (w.w.)
- PHE, cerebral concentration [2]: 0.028 ± 0.010 µmol/g (w.w.)
- SAH, cerebral concentration [2]: 0.026 ± 0.010^f,i μmol/g (w.w.)
- SER, cerebral concentration [2]: 0.71 ± 0.28^b μmol/g (w.w.)
- TAU, cerebral concentration [2]: 3.80 ± 1.19 µmol/g (w.w.)
- THR, cerebral concentration [2]: 0.66 ± 0.23 µmol/g (w.w.)
- TRP, cerebral concentration [2]: 0.015 ± 0.006 µmol/g (w.w.)
- TYR, cerebral concentration [2]: 0.172 ± 0.046^b,f μmol/g (w.w.)
- VAL, cerebral concentration [2]: 0.057 ± 0.017 µmol/g (w.w.)
- ALA, cerebral concentration [3]: 0.57 ± 0.28^a,e μmol/g (w.w.)
- ARG, cerebral concentration [3]: 0.14 ± 0.02 µmol/g (w.w.)
- ASN, cerebral concentration [3]: 0.18 ± 0.02^a μmol/g (w.w.)
- ASP, cerebral concentration [3]: 4.46 ± 0.70^a,f μmol/g (w.w.)
- CITR, cerebral concentration [3]: 0.020 ± 0.006 µmol/g (w.w.)
- GABA, cerebral concentration [3]: 1.85 ± 0.65^a μmol/g (w.w.)
- GLN, cerebral concentration [3]: 3.98 ± 0.34 µmol/g (w.w.)
- GLU, cerebral concentration [3]: 13.58 ± 1.28^a μmol/g (w.w.)
- GLY, cerebral concentration [3]: 1.05 ± 0.13^a,f μmol/g (w.w.)
- HIS, cerebral concentration [3]: 0.047 ± 0.021 µmol/g (w.w.)
- ILE, cerebral concentration [3]: 0.041 ± 0.016^b μmol/g (w.w.)
- L-Cystat, cerebral concentration [3]: 0.26 ± 0.05^a,f μmol/g (w.w.)
- LEU, cerebral concentration [3]: 0.024 ± 0.032^b,f μmol/g (w.w.)
- LYS, cerebral concentration [3]: 0.179 ± 0.036 µmol/g (w.w.)
- MET, cerebral concentration [3]: 0.009 ± 0.004^b μmol/g (w.w.)
- ORN, cerebral concentration [3]: 0.017 ± 0.009^a,e μmol/g (w.w.)
- PHE, cerebral concentration [3]: 0.033 ± 0.011^b μmol/g (w.w.)
- SAH, cerebral concentration [3]: 0.050 ± 0.013^a μmol/g (w.w.)
- SER, cerebral concentration [3]: 0.93 ± 0.27^a,e μmol/g (w.w.)
- TAU, cerebral concentration [3]: 4.49 ± 0.43^a μmol/g (w.w.)
- THR, cerebral concentration [3]: 0.75 ± 0.24^a,e μmol/g (w.w.)
- TRP, cerebral concentration [3]: 0.012 ± 0.007 µmol/g (w.w.)
- TYR, cerebral concentration [3]: 0.21 ± 0.05^f μmol/g (w.w.)
- VAL, cerebral concentration [3]: 0.040 ± 0.016^b μmol/g (w.w.)
